Broadly, the IC50 is the concentration at which inhibition is half-maximal.

These results are taken from patent publication US20240059677A1, “SUBSTITUTED PYRIMIDINE DERIVATIVES AS NICOTINIC ACETYLCHOLINESTERASE RECEPTOR ALPHA 6 MODULATOR” (priority 2020, published 2024).

For the experiment, the target named is T1, human nAChRα6-α3 chimera, in addition to β2 and β3^V273S subunits (Homo sapiens, UniProt P32297+Q15825).
T1 construct: expressed in transfected cells
T1 sequence (Q05901 25-458 V273S): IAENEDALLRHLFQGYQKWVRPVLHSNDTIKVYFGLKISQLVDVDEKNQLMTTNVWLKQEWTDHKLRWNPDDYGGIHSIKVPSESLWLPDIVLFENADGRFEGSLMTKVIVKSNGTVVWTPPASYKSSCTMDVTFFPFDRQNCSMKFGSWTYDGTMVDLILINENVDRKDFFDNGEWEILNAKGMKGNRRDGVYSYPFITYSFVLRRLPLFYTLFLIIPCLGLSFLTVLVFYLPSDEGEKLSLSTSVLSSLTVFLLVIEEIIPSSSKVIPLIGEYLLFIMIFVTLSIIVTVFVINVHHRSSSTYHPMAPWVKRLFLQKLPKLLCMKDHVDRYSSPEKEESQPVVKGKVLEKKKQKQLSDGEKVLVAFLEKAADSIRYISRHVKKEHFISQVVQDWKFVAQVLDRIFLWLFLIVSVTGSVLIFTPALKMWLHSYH
T1 sequence (P17787 26-502, stated change not applied, further chain): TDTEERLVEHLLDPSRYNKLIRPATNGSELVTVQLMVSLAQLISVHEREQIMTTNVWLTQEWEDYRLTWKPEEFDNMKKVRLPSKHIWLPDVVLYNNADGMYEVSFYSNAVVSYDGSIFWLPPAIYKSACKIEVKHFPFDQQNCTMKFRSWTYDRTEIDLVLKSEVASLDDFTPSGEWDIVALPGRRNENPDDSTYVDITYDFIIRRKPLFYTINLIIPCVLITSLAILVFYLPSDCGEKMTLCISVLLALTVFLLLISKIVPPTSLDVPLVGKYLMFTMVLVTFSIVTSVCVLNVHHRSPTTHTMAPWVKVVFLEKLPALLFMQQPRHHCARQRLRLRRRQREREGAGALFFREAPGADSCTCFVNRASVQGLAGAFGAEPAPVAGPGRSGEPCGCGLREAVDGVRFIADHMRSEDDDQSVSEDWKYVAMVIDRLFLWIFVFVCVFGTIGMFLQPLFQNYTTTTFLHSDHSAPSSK
T1 sequence (Q15825+P32297 fused with the stated changes): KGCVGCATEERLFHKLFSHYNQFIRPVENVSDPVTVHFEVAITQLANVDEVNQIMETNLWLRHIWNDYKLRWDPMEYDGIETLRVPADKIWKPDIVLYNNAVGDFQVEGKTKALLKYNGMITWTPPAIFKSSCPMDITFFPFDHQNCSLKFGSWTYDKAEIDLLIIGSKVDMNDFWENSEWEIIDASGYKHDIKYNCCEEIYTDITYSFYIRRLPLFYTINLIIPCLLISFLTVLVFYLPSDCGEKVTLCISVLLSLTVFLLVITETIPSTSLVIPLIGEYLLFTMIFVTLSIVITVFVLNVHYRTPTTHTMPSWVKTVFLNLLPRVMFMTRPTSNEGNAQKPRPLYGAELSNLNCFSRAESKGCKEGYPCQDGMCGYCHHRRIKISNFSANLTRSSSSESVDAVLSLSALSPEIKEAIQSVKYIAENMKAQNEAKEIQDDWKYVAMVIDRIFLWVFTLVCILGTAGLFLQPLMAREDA
The experiment can be described thus: fluorescence-based calcium assay: inhibition of nicotine stimulated nAChRα6 activity (FLIPR). The conditions noted are these: HEK cell line stably expressing the receptor; 10 min pre-incubation, nicotine EC80; 10-point curve, duplicate wells; read-out: IC50. The gist of the method:
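HEK cells stably expressing the human α6-α3 chimera with β2 and β3^V273S were loaded with calcium dye at 30° C. Compounds were pre-incubated for 10 min before nicotine at EC80, and the fluorescence change was read on a FLIPR. Ten-point half-log concentration-response, duplicate wells.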
Regarding `Cc1nc(NC2CC(C)(C)NC(C)(C)C2)ncc1-c1ccc(C(F)(F)F)cc1F` [Example 126, 5-(2-fluoro-4-(trifluoromethyl)phenyl)-4-methyl-N-(2,2,6,6-tetramethylpiperidin-4-yl)pyrimidin-2-amine], the concentration for half-maximal inhibition (IC50) is 259 nM.
The result for `CCN1CCC[C@H]1CNc1ncc(-c2ccc(C(F)(F)F)cc2F)c(C)n1` [Example 105, (S)—N-((1-ethylpyrrolidin-2-yl)methyl)-5-(2-fluoro-4-(trifluoromethyl)phenyl)-4-methyl-pyrimidin-2-amine] reads 50 nM; that for `COc1ccc(-c2cnc(NCC3CCCCN3C(C)C)nc2C)c(F)c1` (stereo not drawn) [Example 50, 5-(2-fluoro-4-methoxyphenyl)-N-((1-isopropylpiperidin-2-yl)methyl)-4-methyl-pyrimidin-2-amine], 103 nM.
The result for `CN1CCCC1CCNc1ncc(-c2ccc(F)cc2)cn1` (stereo not drawn) [Example 3, 5-(4-fluorophenyl)-N-(2-(1-methylpyrrolidin-2-yl)ethyl)pyrimidin-2-amine] reads 331 nM; that for `Cc1nc(NCC2CCCN2)ncc1-c1ccc(F)cc1F` (stereo not drawn) [Example 82, 5-(2,4-difluorophenyl)-4-methyl-N-(pyrrolidin-2-ylmethyl)pyrimidin-2-amine], 18 nM; that for `Cc1nc(NC2CCN(C)CC2)ncc1-c1ccc(OC(F)(F)F)cc1F` [Example 89, 5-(2-fluoro-4-(trifluoromethoxy)phenyl)-4-methyl-N-(1-methylpiperidin-4-yl)pyrimidin-2-amine], 180 nM.
The result for `Cc1nc(NCc2cccnc2)ncc1-c1ccc(F)cc1F` [Example 42, 5-(2,4-difluorophenyl)-4-methyl-N-(pyridin-3-ylmethyl)pyrimidin-2-amine] reads 1200 nM.
As for `O=C(O)/C=C/C(=O)O.[2H]C([2H])([2H])N1CCC[C@H]1CNc1ncc(-c2ccc(C(F)(F)F)cc2F)c(C)n1` [Example 118, (S)-5-(2-fluoro-4-(trifluoromethyl)phenyl)-4-methyl-N-((1-(trideuteriomethyl)pyrrolidin-2-yl)methyl)pyrimidin-2-amine], the concentration for half-maximal inhibition (IC50) came to 75 nM.
The result for `Cc1nc(NCC2CN(C)CCO2)ncc1-c1ccc(C(F)(F)F)cc1F` (stereo not drawn) [Example 108, 5-(2-fluoro-4-(trifluoromethyl)phenyl)-4-methyl-N-((4-methylmorpholin-2-yl)methyl)pyrimidin-2-amine] reads 43 nM.
The result for `Cc1nc(NC2CCN(C)CC2)ncc1-c1ccc(F)cc1F` [Example 71, 5-(2,4-difluorophenyl)-4-methyl-N-(1-methylpiperidin-4-yl)pyrimidin-2-amine] reads 54 nM; that for `COc1ccc(-c2cnc(NC3CCN(C(C)C)CC3)nc2C#N)c(F)c1` [Example 81, 5-(2-fluoro-4-methoxyphenyl)-2-((1-isopropylpiperidin-4-yl)amino) pyrimidine-4-carbonitrile], 98 nM; that for `CN(C)C1CCCC(Nc2ncc(-c3ccc(F)cc3F)c(C#N)n2)C1` (single isomer, unassigned) [Example 59a, 5-(2,4-difluorophenyl)-2-((3-(dimethylamino)cyclohexyl)amino) pyrimidine-4-carbonitrile], 202 nM.
The result for `Cc1nc(NCC2NCCC2(F)F)ncc1-c1ccc(F)cc1F` (single isomer, unassigned) [Example 83a, 5-(2,4-difluorophenyl)-N-((3,3-difluoropyrrolidin-2-yl)methyl)-4-methyl-pyrimidin-2-amine] reads 1150 nM; that for `Cc1nc(NC2CCCN(C(C)C)C2)ncc1-c1ccc(F)cc1` (stereo not drawn) [Example 9, 5-(4-fluorophenyl)-N-(1-isopropylpiperidin-3-yl)-4-methyl-pyrimidin-2-amine], 264 nM.
`Cc1nc(NC2CCCC(N(C)C)C2)nnc1-c1ccc(F)cc1F` (single isomer, unassigned) [Example 39b, N^1-(6-(2,4-difluorophenyl)-5-methyl-1,2,4-triazin-3-yl)-N^3,N^3-dimethylcyclohexane-1,3-diamine]: the IC50 is 901 nM.
